# From ChEMBL document CHEMBL1938266, “A three-step protocol for lead optimization: quick identification of key conformational features and functional groups in the SAR studies of non-ATP competitive MK2 (MAPKAPK2) inhibitors” (Bioorg Med Chem Lett, 2012)
# Tests used:
# THP-1 = assay: Inhibition of LPS-stimulated TNFalpha production in human THP1 cells by ELISA; assay type: functional, cell-based
# [1] = molecular target: T1, MAP kinase-activated protein kinase 2 (Homo sapiens, UniProt P49137); assay: Inhibition of human MK2
# [2] = molecular target: T1, MAP kinase-activated protein kinase 2; assay: Inhibition of MK2-mediated HSP27 phosphorylation by cell-based assay
# T1 sequence (P49137 whole entry): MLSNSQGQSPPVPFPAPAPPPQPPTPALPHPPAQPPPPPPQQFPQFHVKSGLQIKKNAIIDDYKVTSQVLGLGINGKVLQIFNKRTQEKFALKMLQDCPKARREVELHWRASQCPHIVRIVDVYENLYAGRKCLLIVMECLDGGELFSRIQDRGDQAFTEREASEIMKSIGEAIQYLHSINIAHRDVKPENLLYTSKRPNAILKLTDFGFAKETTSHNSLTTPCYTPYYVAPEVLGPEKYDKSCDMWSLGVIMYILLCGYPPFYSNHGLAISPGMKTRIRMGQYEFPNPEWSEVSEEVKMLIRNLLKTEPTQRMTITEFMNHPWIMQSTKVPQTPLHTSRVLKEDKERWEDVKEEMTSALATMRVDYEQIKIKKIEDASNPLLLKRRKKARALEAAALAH
SMILES,EC50 (THP-1),IC50 ([1]; read-out: IC50),EC50 [2],IC50 [1]
N#Cc1ccc(-c2ccc(C(=O)N(Cc3ccccc3-c3cncnc3)c3ccc(N4CCNCC4)cc3)o2)cc1,880 nM,27 nM,–,–
N#Cc1ccc(-c2ccc(C(=O)N(Cc3ccccc3-c3cccnc3)c3ccc(N4CCNCC4)cc3)o2)cn1,–,177 nM,–,–
N#Cc1ccc(-c2ccc(C(=O)N(Cc3cccc(-c4ccncc4)c3)c3ccc(N4CCNCC4)cc3)o2)cc1,–,110 nM,–,–
O=C(c1ccc(-c2ccc(Cl)cc2)o1)N(Cc1ccccn1)C1CCC(N2CCNCC2)CC1 (centres undefined),–,4740 nM,–,–
N#Cc1ccc(-c2ccc(C(=O)N(Cc3ccccc3-c3cccc(C#N)c3)c3ccc(N4CCNCC4)cc3)o2)cc1,1590 nM,19 nM,–,–
COc1ccccc1-c1ncccc1CN(C(=O)c1ccc(-c2ccc(C#N)cc2)o1)c1ccc(N2CCNCC2)cc1,734 nM,12 nM,–,–
Cc1cccc(C)c1-c1ccccc1CN(C(=O)c1ccc(-c2ccc(C#N)cc2)o1)c1ccc(N2CCNCC2)cc1,–,258 nM,–,–
O=C(c1ccc(-c2ccc(Cl)cc2)o1)N(Cc1ccccn1)c1ccc(N2CCNCC2)cc1,5000 nM,110 nM,350 nM,–
COc1ncc(-c2ccccc2CN(C(=O)c2ccc(-c3ccc(C#N)cc3)o2)c2ccc(N3CCNCC3)cc2)cn1,–,52 nM,–,–
N#Cc1ccc(-c2ccc(C(=O)N(Cc3ccccc3-c3ccccc3F)c3ccc(N4CCNCC4)cc3)o2)cc1,–,12 nM,–,–
COc1cccc(-c2ccccc2CN(C(=O)c2ccc(-c3ccc(C#N)cc3)o2)c2ccc(N3CCNCC3)cc2)c1,–,12 nM,–,–
N#Cc1ccc(-c2ccc(C(=O)N(Cc3ccccc3-c3ccccn3)c3ccc(N4CCNCC4)cc3)o2)cc1,2540 nM,14 nM,–,–
N#Cc1ccc(-c2ccc(C(=O)N(Cc3ccccc3-c3cccnc3)c3ccc(N4CCNCC4)cc3)o2)cc1,1240 nM,9 nM,–,–
CN1CCN(CCCN(Cc2ccccn2)C(=O)c2ccc(-c3ccc(C#N)cc3)o2)CC1,–,10000 nM,–,–
Cc1noc(C)c1-c1ccccc1CN(C(=O)c1ccc(-c2ccc(C#N)cc2)o1)c1ccc(N2CCNCC2)cc1,1770 nM,21 nM,–,–
N#Cc1ccc(-c2ccc(C(=O)N(Cc3ccccc3-c3ccc(C#N)cc3)c3ccc(N4CCNCC4)cc3)o2)cc1,2950 nM,8 nM,–,–
N#Cc1ccc(-c2ccc(C(=O)N(Cc3ccc(-c4ccncc4)cc3)c3ccc(N4CCNCC4)cc3)o2)cc1,–,128 nM,–,–
COc1ccncc1-c1ccccc1CN(C(=O)c1ccc(-c2ccc(C#N)cc2)o1)c1ccc(N2CCNCC2)cc1,310 nM,8 nM,–,–
COc1cc(-c2ccccc2CN(C(=O)c2ccc(-c3ccc(C#N)cc3)o2)c2ccc(N3CCNCC3)cc2)ccn1,–,24 nM,–,–

SMILES,EC50 (THP-1),IC50 ([1]; read-out: IC50),EC50 [2],IC50 [1]
N#Cc1ccc(-c2ccc(C(=O)N(Cc3cccc(-c4ccccc4F)c3)c3ccc(N4CCNCC4)cc3)o2)cc1,–,1450 nM,–,–
N#Cc1ccc(-c2ccc(C(=O)N(Cc3ccc(-c4ccccc4F)cc3)c3ccc(N4CCNCC4)cc3)o2)cc1,–,1920 nM,–,–
N#Cc1ccc(-c2ccc(C(=O)N(Cc3cccnc3-c3cncnc3)c3ccc(N4CCNCC4)cc3)o2)cc1,–,100 nM,–,–
Cc1ccccc1-c1ccccc1CN(C(=O)c1ccc(-c2ccc(C#N)cc2)o1)c1ccc(N2CCNCC2)cc1,–,285 nM,–,–
N#Cc1ccc(-c2ccc(C(=O)N(Cc3ccccn3)c3ccc(N4CCNCC4)cc3)o2)cc1,–,115 nM,–,–
N#Cc1ccc(-c2ccc(C(=O)N(Cc3cccc(-c4ccccc4)c3)c3ccc(N4CCNCC4)cc3)o2)cc1,28100 nM,70 nM,–,–
COc1ccccc1-c1ccccc1CN(C(=O)c1ccc(-c2ccc(C#N)cc2)o1)c1ccc(N2CCNCC2)cc1,1960 nM,20 nM,–,–
COc1cncc(-c2ccccc2CN(C(=O)c2ccc(-c3ccc(C#N)cc3)o2)c2ccc(N3CCNCC3)cc2)c1,1800 nM,20 nM,–,–
Cc1cccc(CN(C(=O)c2ccc(-c3ccc(C#N)cc3)o2)c2ccc(N3CCNCC3)cc2)n1,–,79 nM,–,–
N#Cc1ccc(-c2ccc(C(=O)N(Cc3ccccn3)C3CCNCC3)o2)cc1,–,10000 nM,–,–
COc1ccc(-c2ccccc2CN(C(=O)c2ccc(-c3ccc(C#N)cc3)o2)c2ccc(N3CCNCC3)cc2)cn1,–,43 nM,–,–
N#Cc1ccc(-c2ccc(C(=O)N(Cc3ccccc3-c3ccccc3)c3ccc(N4CCNCC4)cc3)o2)cc1,3460 nM,9 nM,–,–
Cc1cccc(CN(C(=O)c2ccc(-c3ccc(Cl)cc3)o2)c2cccc(N3CCNCC3)c2)n1,–,–,–,Not Active
N#Cc1ccc(-c2ccc(C(=O)N(Cc3ccccc3-c3ccccc3)c3ccc(N4CCNCC4)cc3)o2)cn1,–,258 nM,–,–
COc1ccncc1-c1ncccc1CN(C(=O)c1ccc(-c2ccc(C#N)cc2)o1)c1ccc(N2CCNCC2)cc1,1590 nM,9 nM,–,–
Cc1cccc(CN(C(=O)c2ccc(-c3ccc(Cl)cc3)o2)c2ccccc2N2CCNCC2)n1,–,–,–,Not Active
N#Cc1ccc(-c2ccc(C(=O)N(Cc3ccccc3-c3ccncc3)c3ccc(N4CCNCC4)cc3)o2)cc1,8400 nM,12 nM,–,–
N#Cc1ccc(-c2ccc(C(=O)N(Cc3ccc(-c4ccccc4)cc3)c3ccc(N4CCNCC4)cc3)o2)cc1,6690 nM,41 nM,–,–
